Measurements as given in patent US12150996B2, “Polymeric prodrugs and subcutaneous and/or intramuscular administration thereof” (priority 2017, dated 2024).

Experiments:
[1] = tested on: SC tissue; assay: SC toxicity at the injection site (Example 10)
Description: The same studies were carried out with a polymer according to the invention coupled with Cyanine 5.5.

[2] = Pharmacokinetics and biodistribution of radiolabelled PTX; conditions: mice, liver, kidneys, spleen, lungs; radiolabel
Description: 7 week old female BALB/c OlaHsd mice (˜22 g; Envigo, France) were used. […] Each group consisted of 40 mice divided into 10 different times (0.25 h, 0.5 h, 1 h, 2 h, 4 h, 7 h, 24 h, 48 h, 96 h and 144 h) leading to 4 mice per group. […] Livers, kidneys, spleens, lungs and some SC tissue at the injection site were also collected. All the samples were stored in a freezer (−20° C.) for a maximum of one week before analysis. For the radioactivity count, approximately 100 μl of plasma and 100 mg of each organ/tissue were removed and weighed with precision. The organs were first dissolved by adding 1 ml of soluble solution (PerkinElmer, USA) and the samples were placed overnight in an oven at 60° C. They were then whitewashed by twice adding 100 μL of 30% H2O2 (weight/volume) and heated for 30 min at 60° C. in an oven. Finally, the treated plasma and organ samples were mixed with Hionic-FluorUltimagold (PerkinElmer, USA) and the radioactivity was measured with a versatile LS 6500 scintillation counter (Beckman Coulter).
Pharmacokinetic and biodistribution studies were also conducted for the polyacrylamide compound containing paclitaxel. Paclitaxel was radiolabelled and coupled to the polymer by an ester link (stable link) so that it could be followed in the blood and in various organs (liver, lungs, kidneys, spleen, SC tissue). […]

Molecule	SC toxicity (necrosis of SC tissue) ([1]; in vivo, sc, 0.8 mg/kg)	Toxicity at the injection site ([1]; SC administration at 30 mg/kg (paclitaxel equivalent) once a day for 4 days, FIG. 12)	Elimination (biodistribution) [2]
Cyanine 5.5	very necrotizing for SC tissue		
CC(=O)O[C@H]1C(=O)[C@@]2(C)[C@H]([C@H](OC(=O)c3ccccc3)[C@]3(O)C[C@H](OC(=O)[C@H](O)[C@@H](NC(=O)c4ccccc4)c4ccccc4)C(C)=C1C3(C)C)[C@]1(OC(C)=O)CO[C@@H]1C[C@@H]2O [paclitaxel]		local toxicity effects	predominantly hepatic elimination
